Data taken from patent publication US20110135588A1, “Hair Conditioning Composition Comprising Quaternized Silicone Polymer, Silicone Copolymer, and Carbamate” (priority 2009, published 2011).

Experiment: Product appearance (compatibility with the quaternized silicone polymer and/or solvent thereof): silicone particle size observed by microscope
Assay type: physicochemical
Details: preservative used together with quaternized silicone polymer and its solvent
Description: Product Appearance (Compatibility with the Quaternized Silicone Polymer and/or Solvent Thereof)
Product appearance is evaluated as follows, by silicone particle size in compositions which was observed using micro scope.
Pass: Average silicone particle size is 200 μm or less
Fail: Average silicone particle size is above 200 μm (excluding 200 μm)

| SMILES | Agglomeration of quaternized silicone polymer (product appearance) |
| --- | --- |
| C/C=C/C=C/C(=O)[O-].[K+] [potassium sorbate] | form agglomerates |
| O=C(O)c1ccccc1O [salicylic acid] | form agglomerates |
